Results: patent US20070128217A1 (priority 2003, published 2007)

Columns and labels:
[1] = tested on: antibodies in sera from SARS patients (sera 1a, 1b, 2, 6, 37, 62, London, SARS-yellow, SARS-green); assay type: binding, human; set-up: Binding of serum 6 to linear peptides of protein X1 of SARS-CoV Urbani / Binding of serum 37 to linear peptides of protein X1 of SARS-CoV Urbani / Binding of serum 6 to looped/cyclic peptide (PEPSCAN-ELISA) / Binding of serum 37 to looped/cyclic peptide (PEPSCAN-ELISA) / Binding of serum 37 to looped/cyclic peptides of protein X1 of SARS-CoV Urbani / Binding of serum 6 to linear peptides of protein X2 / Binding of serum 37 to linear peptides of protein X2 / Binding of serum 37 to looped/cyclic peptides of protein X2 of SARS-CoV Urbani / Binding of serum 6 to linear peptides of protein M of SARS-CoV Urbani / Binding of serum 37 to linear peptides of protein M of SARS-CoV Urbani / Binding of serum 6 to looped/cyclic peptides of protein M of SARS-CoV Urbani / Binding of serum 37 to looped/cyclic peptides of protein M of SARS-CoV Urbani / Binding of serum 6 to linear peptides of protein X3 of SARS-CoV Urbani / Binding of serum 37 to linear peptides of protein X3 of SARS-CoV Urbani / Binding of serum 37 to looped/cyclic peptides of protein X3 of SARS-CoV Urbani / Binding of serum 6 to linear peptides of protein X4 of SARS-CoV Urbani / Binding of serum 37 to linear peptides of protein X4 of SARS-CoV Urbani / Binding of serum 37 to looped/cyclic peptides of protein X4 of SARS-CoV Urbani / Binding of serum 6 to linear peptides of protein X5 of SARS-CoV Urbani / Binding of serum 37 to linear peptides of protein X5 of SARS-CoV Urbani / Binding of serum 37 to looped/cyclic peptides of protein X5 of SARS-CoV Urbani / Binding of serum 6 to linear peptides of protein N of SARS-CoV Urbani / Binding of serum 37 to linear peptides of protein N of SARS-CoV Urbani / Binding of serum 6 to linear peptide (PEPSCAN-ELISA) / Binding of serum 1a to looped/cyclic peptides of protein N of SARS-CoV Urbani / Binding of serum 1b to looped/cyclic peptides of protein N of SARS-CoV Urbani / Binding of serum 2 to looped/cyclic peptides of protein N of SARS-CoV Urbani / Binding of serum 6 to looped/cyclic peptides of protein N of SARS-CoV Urbani / Binding of serum 37 to looped/cyclic peptides of protein N of SARS-CoV Urbani / Binding of serum 62 to looped/cyclic peptides of protein N of SARS-CoV Urbani / Binding of serum London to looped/cyclic peptides of protein N of SARS-CoV Urbani / Binding of serum SARS-green to looped/cyclic peptides of protein N of SARS-CoV Urbani: unit not given here
[2] = tested on: control sera (pooled serum of ten healthy LUMC hospital workers; commercial negative donor pooled serum from the Dutch bloodbank); assay type: binding, human; set-up: Binding of Control serum LUMC to linear peptides / Binding of Control serum Blood-bank to linear peptides / Binding of Control serum LUMC to looped peptides / Binding of Control Serum Blood-Bank to Looped peptides / Binding of Control serum LUMC to linear peptides of the protein M of SARS-CoV Urbani / Binding of Control serum Blood-bank to linear peptides of the protein M of SARS-CoV Urbani / Binding of Control serum LUMC to looped peptides of the protein M of SARS-CoV Urbani / Binding of Control Serum Blood-Bank to Looped peptides of the protein M of SARS-CoV Urbani: unit not given here
[3] = tested on: rabbit serum obtained by immunizing a rabbit with the SARS-CoV strain Frankfurt 1; assay type: binding; set-up: Binding of a rabbit serum to linear peptides / Binding of a rabbit serum to looped peptides / Rabbit serum linear peptides / Rabbit serum looped peptides / Binding of a rabbit serum to linear peptides of protein N of SARS-CoV Urbani (Rabbit serum linear peptides) / Binding of a rabbit serum to looped/cyclic peptides of protein N of SARS-CoV Urbani (Rabbit serum looped peptides): unit not given here

## IPYNSVTDTIVVTEG
[1]
  Binding of serum 1a to linear peptides of protein X1 of SARS-CoV Urbani: 0.7
  Binding of serum 1a to looped/cyclic peptides of protein X1 of SARS-CoV Urbani: 0.5
  Binding of serum 1b to linear peptides of protein X1 of SARS-CoV Urbani: 0.5
  Binding of serum 1b to looped/cyclic peptides of protein X1 of SARS-CoV Urbani: 0.4
  Binding of serum 2 to linear peptides of protein X1 of SARS-CoV Urbani: 0.5
  Binding of serum 2 to looped/cyclic peptides of protein X1 of SARS-CoV Urbani: 0.4
  Binding of serum 6 to linear peptides of protein X1 of SARS-CoV Urbani: 0.4
  Binding of serum 6 to looped/cyclic peptides of protein X1 of SARS-CoV Urbani: 0.3
  Binding of serum 37 to linear peptides of protein X1 of SARS-CoV Urbani: 0.6
  Binding of serum 37 to looped/cyclic peptides of protein X1 of SARS-CoV Urbani: 0.5
  Binding of serum 62 to linear peptides of protein X1 of SARS-CoV Urbani: 0.4
  Binding of serum 62 to looped/cyclic peptides of protein X1 of SARS-CoV Urbani: 0.5
  Binding of serum London to linear peptides of protein X1 of SARS-CoV Urbani: 0.2
  Binding of serum London to looped/cyclic peptides of protein X1 of SARS-CoV Urbani: 0.2
  Binding of serum SARS-green to linear peptides of protein X1 of SARS-CoV Urbani: 0.3
  Binding of serum SARS-green to looped/cyclic peptides of protein X1 of SARS-CoV Urbani: 0.3
  Binding of serum SARS-yellow to linear peptides of protein X1 of SARS-CoV Urbani: 0.4
  Binding of serum SARS-yellow to looped/cyclic peptides of protein X1 of SARS-CoV Urbani: 0.2
[2]
  Binding of Control Serum Blood-Bank to Looped peptides: 0.6
  Binding of Control serum Blood-bank to linear peptides: 0.4
  Binding of Control serum LUMC to linear peptides: 0.5
  Binding of Control serum LUMC to looped peptides: 0.4
[3]
  Binding of a rabbit serum to linear peptides: 0.1
  Binding of a rabbit serum to looped peptides: 0.3

## MFHLVDFQVTIAEIL
[1]
  Binding of serum 1a to linear peptides of protein X3 of SARS-CoV Urbani: 0.8
  Binding of serum 1a to looped/cyclic peptides of protein X3 of SARS-CoV Urbani: 0.8
  Binding of serum 1b to linear peptides of protein X3 of SARS-CoV Urbani: 0.7
  Binding of serum 1b to looped/cyclic peptides of protein X3 of SARS-CoV Urbani: 0.6
  Binding of serum 2 to linear peptides of protein X3 of SARS-CoV Urbani: 0.7
  Binding of serum 2 to looped/cyclic peptides of protein X3 of SARS-CoV Urbani: 0.8
  Binding of serum 6 to linear peptides of protein X3 of SARS-CoV Urbani: 0.5
  Binding of serum 6 to looped/cyclic peptides of protein X3 of SARS-CoV Urbani: 0.6
  Binding of serum 37 to linear peptides of protein X3 of SARS-CoV Urbani: 0.7
  Binding of serum 37 to looped/cyclic peptides of protein X3 of SARS-CoV Urbani: 1.0
  Binding of serum 62 to linear peptides of protein X3 of SARS-CoV Urbani: 0.8
  Binding of serum 62 to looped/cyclic peptides of protein X3 of SARS-CoV Urbani: 0.8
  Binding of serum London to linear peptides of protein X3 of SARS-CoV Urbani: 0.7
  Binding of serum London to looped/cyclic peptides of protein X3 of SARS-CoV Urbani: 0.3
  Binding of serum SARS-green to linear peptides of protein X3 of SARS-CoV Urbani: 0.3
  Binding of serum SARS-green to looped/cyclic peptides of protein X3 of SARS-CoV Urbani: 0.6
  Binding of serum SARS-yellow to linear peptides of protein X3 of SARS-CoV Urbani: 0.6
  Binding of serum SARS-yellow to looped/cyclic peptides of protein X3 of SARS-CoV Urbani: 0.8
[2]
  Binding of Control Serum Blood-Bank to Looped peptides of the protein X3 of SARS-CoV Urbani: 0.8
  Binding of Control serum Blood-bank to linear peptides of the protein X3 of SARS-CoV Urbani: 0.9
  Binding of Control serum LUMC to linear peptides of the protein X3 of SARS-CoV Urbani: 0.9
  Binding of Control serum LUMC to looped peptides of the protein X3 of SARS-CoV Urbani: 1.0
[3]
  Rabbit serum linear peptides: 0.3
  Rabbit serum looped peptides: 0.4
